Read-outs that look alike come from different tables or passages of the source.
Key:
[1] = biological target: T1, M1 muscarinic receptor (Homo sapiens, UniProt P11229); assay: Receptor Selection and Amplification (R-SAT) assay, cloned M1 receptor; assay type: cell-based; set-up: M1 Eff: scale not given here; details: for Emax: read-out: m1 % Efficacy
T1 construct: expressed in transfected cells
T1 sequence (P11229 1-460): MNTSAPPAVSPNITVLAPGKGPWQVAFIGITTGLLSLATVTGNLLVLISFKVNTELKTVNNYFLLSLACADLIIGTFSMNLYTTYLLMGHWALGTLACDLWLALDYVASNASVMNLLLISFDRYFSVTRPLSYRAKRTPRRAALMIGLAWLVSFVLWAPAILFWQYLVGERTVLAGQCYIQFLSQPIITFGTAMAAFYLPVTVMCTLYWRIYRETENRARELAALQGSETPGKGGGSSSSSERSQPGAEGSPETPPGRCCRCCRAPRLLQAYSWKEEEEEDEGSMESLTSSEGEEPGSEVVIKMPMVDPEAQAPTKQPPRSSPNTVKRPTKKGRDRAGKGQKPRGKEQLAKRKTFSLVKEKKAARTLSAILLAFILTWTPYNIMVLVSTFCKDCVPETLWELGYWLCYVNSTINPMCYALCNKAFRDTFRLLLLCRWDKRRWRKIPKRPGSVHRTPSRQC
Excerpt: (§1) The EC50 for an agonist is intended to denote the concentration of a compound needed to achieve 50% of a maximal response seen in an in vitro assay such as R-SAT. For inverse agonists, EC50 is intended to denote the concentration of a compound needed to achieve 50% inhibition of an R-SAT response from basal, no compound, levels.
(§2) A particularly convenient functional assay system is the receptor selection and amplification assay (R-SAT assay) in U.S. Pat. No. 5,707,798, which describes a method of screening for bioactive compounds by utilizing the ability of cells transfected with receptor DNA, e.g., coding for the different muscarinic subtypes, to amplify in the presence of a ligand of the receptor. Cell amplification is detected as increased levels of a marker also expressed by the cells.
(§3) Receptor Selection and Amplification (R-SAT) assays were carried out using the cloned M1-M5 receptors essentially as described in: Brauner-Osborne H, Brann M R. Pharmacology of muscarinic acetylcholine receptor subtypes (m1-m5): high throughput assays in mammalian cells. Eur J Pharmacol Jan. 4, 1996;295(1):93-102, and Spalding T A, Trotter C, Skjaerbaek N, Messier T L, Currier E A, Burstein E S, Li D, Hacksell U, Brann M R. Discovery of an ectopic activation site on the M(1) muscarinic receptor. Mol Pharmacol. 2002 June;61(6):1297-302.

[2] = biological target: T2, M2 muscarinic receptor (Homo sapiens, UniProt P08172); assay: Receptor Selection and Amplification (R-SAT) assay, cloned M2 receptor; assay type: cell-based; set-up: M2 Eff: scale not given here; details: for Emax: read-out: m2 % Efficacy
T2 construct: expressed in transfected cells
T2 sequence (P08172 1-466): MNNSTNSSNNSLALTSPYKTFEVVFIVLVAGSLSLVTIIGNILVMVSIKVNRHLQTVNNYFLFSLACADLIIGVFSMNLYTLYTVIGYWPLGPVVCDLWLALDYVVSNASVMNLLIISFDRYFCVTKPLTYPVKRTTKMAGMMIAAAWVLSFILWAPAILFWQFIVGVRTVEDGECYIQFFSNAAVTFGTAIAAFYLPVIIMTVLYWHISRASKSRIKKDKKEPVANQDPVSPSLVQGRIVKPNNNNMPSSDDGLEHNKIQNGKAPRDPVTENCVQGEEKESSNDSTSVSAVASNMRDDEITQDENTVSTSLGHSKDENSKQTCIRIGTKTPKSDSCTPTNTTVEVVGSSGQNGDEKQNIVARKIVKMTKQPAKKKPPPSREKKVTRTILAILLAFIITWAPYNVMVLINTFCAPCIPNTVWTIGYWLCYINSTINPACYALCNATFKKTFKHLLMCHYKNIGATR
Excerpt: as §1, §2, §3

[3] = biological target: T3, M3 muscarinic receptor (Homo sapiens, UniProt P20309); assay: Receptor Selection and Amplification (R-SAT) assay, cloned M3 receptor; assay type: cell-based
T3 construct: expressed in transfected cells
Excerpt: as §1, §2, §3

[4] = biological target: T4, M4 muscarinic receptor (Homo sapiens, UniProt P08173); assay: Receptor Selection and Amplification (R-SAT) assay, cloned M4 receptor; assay type: cell-based; details: R-SAT, cloned m4 receptor; for Emax: read-out: m4 % Efficacy; for EC50: read-out: m4 pEC50 (converted)
T4 construct: expressed in transfected cells
T4 sequence (P08173 1-479): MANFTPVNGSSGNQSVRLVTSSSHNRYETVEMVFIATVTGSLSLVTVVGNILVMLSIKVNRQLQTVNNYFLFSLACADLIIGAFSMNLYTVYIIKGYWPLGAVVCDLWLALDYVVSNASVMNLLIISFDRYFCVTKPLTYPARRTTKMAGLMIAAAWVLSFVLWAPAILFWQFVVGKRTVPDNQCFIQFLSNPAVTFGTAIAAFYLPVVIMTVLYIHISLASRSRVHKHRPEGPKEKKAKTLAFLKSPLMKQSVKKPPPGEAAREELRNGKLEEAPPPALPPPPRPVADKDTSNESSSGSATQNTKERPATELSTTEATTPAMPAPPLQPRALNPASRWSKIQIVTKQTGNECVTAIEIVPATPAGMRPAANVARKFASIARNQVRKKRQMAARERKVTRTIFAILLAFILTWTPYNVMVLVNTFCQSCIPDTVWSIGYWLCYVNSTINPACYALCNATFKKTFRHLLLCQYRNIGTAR
Excerpt: as §1, §2, §3

[5] = biological target: T5, M5 muscarinic receptor (Homo sapiens, UniProt P08912); assay: Receptor Selection and Amplification (R-SAT) assay, cloned M5 receptor; assay type: cell-based; details: for Emax: read-out: m5 % Efficacy; for EC50: read-out: m5 pEC50 (converted)
T5 construct: expressed in transfected cells
T5 sequence (P08912 1-532): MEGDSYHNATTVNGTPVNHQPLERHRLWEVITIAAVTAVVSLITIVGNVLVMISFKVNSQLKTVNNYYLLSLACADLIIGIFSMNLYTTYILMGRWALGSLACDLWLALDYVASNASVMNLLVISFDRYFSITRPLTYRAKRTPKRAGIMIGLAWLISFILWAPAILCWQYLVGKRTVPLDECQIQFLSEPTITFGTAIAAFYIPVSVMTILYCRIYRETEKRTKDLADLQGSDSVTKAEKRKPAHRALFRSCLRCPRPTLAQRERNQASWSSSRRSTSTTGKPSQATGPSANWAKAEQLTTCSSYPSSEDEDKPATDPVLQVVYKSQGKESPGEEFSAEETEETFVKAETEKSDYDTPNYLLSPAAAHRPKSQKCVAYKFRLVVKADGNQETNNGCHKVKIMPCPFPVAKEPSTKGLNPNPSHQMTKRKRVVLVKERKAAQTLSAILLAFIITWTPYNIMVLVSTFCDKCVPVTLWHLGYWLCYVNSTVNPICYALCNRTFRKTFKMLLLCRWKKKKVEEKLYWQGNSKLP
Excerpt: as §1, §2, §3

[6] = some AChE inhibitors, such as tacrine; cited from earlier work
[7] = M1 pEC50, R-SAT, second table (COMPOUND ID series)
[8] = R-SAT, second table (COMPOUND ID series)
[9] = M2 pEC50, R-SAT, second table (COMPOUND ID series)
[10] = R-SAT, cloned m1 receptor, read-out: m1 pEC50 (converted)
[11] = R-SAT, cloned m2 receptor, read-out: m2 pEC50 (converted)
[12] = R-SAT, second table (COMPOUND ID series), read-out: M1 pEC50 (converted)
[13] = R-SAT, second table (COMPOUND ID series), read-out: M2 pEC50 (converted)
[14] = R-SAT, second table (COMPOUND ID series), read-out: M3 pEC50 (converted)

T3 sequence (P20309 whole entry): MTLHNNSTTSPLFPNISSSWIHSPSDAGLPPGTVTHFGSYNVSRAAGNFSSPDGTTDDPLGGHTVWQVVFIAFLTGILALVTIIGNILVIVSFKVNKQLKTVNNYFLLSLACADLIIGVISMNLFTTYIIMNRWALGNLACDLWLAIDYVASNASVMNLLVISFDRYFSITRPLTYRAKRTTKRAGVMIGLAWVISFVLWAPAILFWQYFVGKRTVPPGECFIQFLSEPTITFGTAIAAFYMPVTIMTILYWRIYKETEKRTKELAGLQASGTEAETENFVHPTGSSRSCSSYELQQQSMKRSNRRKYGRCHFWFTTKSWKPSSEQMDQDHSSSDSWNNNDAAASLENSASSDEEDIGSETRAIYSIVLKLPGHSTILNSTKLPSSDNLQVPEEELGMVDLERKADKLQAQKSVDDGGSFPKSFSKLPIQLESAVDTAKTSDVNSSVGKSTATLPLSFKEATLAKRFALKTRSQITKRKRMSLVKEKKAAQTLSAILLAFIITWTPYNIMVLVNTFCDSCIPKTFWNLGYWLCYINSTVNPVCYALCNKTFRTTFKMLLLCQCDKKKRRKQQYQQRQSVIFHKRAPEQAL

Row | Emax ([1]; R-SAT, cloned m1 receptor) [%] | EC50 [1, 10] [µM] | Emax [4] [%] | EC50 [4] [µM] | Emax [5] [%] | EC50 [5] [µM] | SMILES | EC50 [1, 7] [µM] | M1 Eff [1, 8] | EC50 [2, 9] [µM] | M2 Eff [2, 8] | EC50 [3] [µM] | M3 Eff [3, 8] | further results
1 | – | – | – | – | – | – | C[C@@H](CN1C(=O)COc2ccccc21)CN1[C@@H]2CC[C@H]1C[C@@H](OCC1CC1)C2 [Compound 00262909, (R)-4-[3-(3a -Cyclopropylmethoxy-8-azabicyclo[3.2.1]oct-8-yl)-2-methylpropyl]-4H-benzo[1.4]oxazin-3-one] | 0.00251 | 137 | 0.0398 | 124 | 0.398 | 52 | –
2 | 80 | 0.0398 | 50 | 0.316 | 48 | 0.631 | CCCCC1CCN(CCCN2C(=O)COc3ccc(C)cc32)CC1 [Compound 64LHY89-6, 4-[3-(4-Butyl-piperidin-1-yl)-propyl]-6-methyl-4H-benzo[1,4]oxazin-3-one] | – | – | – | – | – | – | Emax ([2]; R-SAT, cloned m2 receptor): 35%; EC50 [2, 11]: 0.631 µM
3 | – | – | – | – | – | – | CCOCCC1CC2CCC(C1)N2CC(C)CN1C(=O)COc2ccccc21 (single isomer, unassigned) [Compound 00263201] | 0.001 | 126 | 0.0794 | 52 | 0.158 | 30 | –
4 | 92 | – | 57 | 0.398 | 50 | 1.26 | CCCCC1CCN(CCCN2C(=O)COc3cc(F)ccc32)CC1 [Compound 81MF763, 4-[3-(4-Butylpiperidin-1-yl)propyl]-7-fluoro-4H-benzo[1,4]oxazin-3-one] | – | – | – | – | – | – | Emax ([2]; R-SAT, cloned m2 receptor): 47%; EC50 [2, 11]: 0.251 µM
5 | – | – | – | – | – | – | CC(CN1CCC(OCC2CC2)CC1)CN1C(=O)COc2ccccc21 (racemic) [Compound 00262273, (R,S)-4-[3-(4-Cyclopropylmethoxypiperidin-1-yl)-2-methylpropyl]-4H-benzo[1,4]oxazin-3-one] | – | 155 | – | 98 | – | 35 | EC50 [1, 12]: 0.0251 µM; EC50 [2, 13]: 0.794 µM; EC50 [3, 14]: 1.58 µM
6 | – | – | – | – | – | – | CCON=C1CC2CCC(C1)N2C[C@@H](C)CN1C(=O)COc2ccccc21 (single isomer, unassigned) [Compound 00261435] | 0.00398 | 121 | 0.0794 | 128 | 0.631 | 82.8 | –
7 | – | – | – | – | – | – | Nc1c2c(nc3ccccc13)CCCC2 [tacrine] | – | – | – | – | – | – | patients with elevated liver transaminases (significant hepatotoxicity) [6]: about 30%
8 | 76 | 0.0794 | – | – | 37 | > 3.16 | CCCCC1CCN(CCCN2C(=O)CCc3cc(OC)ccc32)CC1 [Compound 77LH22-A, 1-[3-(4-Butyl-piperidin-1-yl)-propyl]-6-methoxy-3,4-dihydro-1H-quinolin-2-one] | – | – | – | – | – | – | –
9 | – | – | – | – | – | – | C[C@H](CN1CCC(OCC2CC2)CC1)CN1C(=O)COc2ccccc21 [Compound 00262908, 4-[(R)-3-(4-Cyclopropylmethoxypiperidin-1-yl)-2-methylpropyl]-4H-benzo[1,4]oxazin-3-one] | – | 126 | – | 103 | – | 74 | EC50 [1, 12]: 0.0126 µM; EC50 [2, 13]: 0.631 µM; EC50 [3, 14]: 2.51 µM
10 | 69 | 0.158 | 51 | 2 | 38 | 0.631 | CCCCC1CCN(CCCN2CCOc3ccc(CC)cc32)CC1 [Compound 64LHY91-5, 4-[3-(4-Butyl-piperidin-1-yl)-propyl]-6-ethyl-3,4-dihydro-2H-benzo[1,4]oxazine] | – | – | – | – | – | – | –

— US7550459B2, “Tetrahydroquinoline analogues as muscarinic agonists” (Acadia Pharmaceuticals, Inc., priority 2001, dated 2009)
